By IC50 is commonly meant the concentration needed to halve the response being measured. Low readings indicate inhibition by little substance, high ones a need for much substance.

This passage reports IC50 results from US20220348549A1 (Hoffmann-La Roche Inc., priority 2019, published 2022).

In this assay the test system is HBV cccDNA (HBeAg level in HepDES19 cells). The assay can be described thus: Engineered HepDES19 primary screen assay (HBeAg ELISA as surrogate marker for cccDNA). The note with it: Hepatitis B virus, HepDES19, 120 h. The format is cell-based. The text has this:
The assay was employed to screen for novel HBV cccDNA inhibitors. HepDES19 is a HBV cccDNA-producing cell line. In this cell line, HBeAg in the cell culture supernatant as surrogate marker, as HBeAg production depends on cccDNA level and activity. HepDES19 is an engineered cell line which contains a 1.1 unit length HBV genome, and pgRNA transcription from the transgene is controlled by Tetracycline (Tet). In the absence of Tet, pgRNA transcription will be induced, but HBV e antigen (HBeAg) could not be produced from this pgRNA due to very short leader sequence before the HBeAg start codon and the start codon is disrupted. Only after cccDNA is formed, the missing leader sequence and start codon mutation would be restored from the 3′-terminal redundancy of pgRNA, and then HBeAg could be synthesized. Therefore, HBeAg could be used as a surrogate marker for cccDNA (Zhou, T. et al., Antiviral Res. (2006), 72(2), 116-124; Guo, H. et al., J. Virol. (2007), 81(22), 12472-12484).
HepDES19 cells were seeded at 2×10^6 cells per T150 flask and cultured with the culture medium (Dulbecco's Modified Eagle Medium: Nutrient Mixture F-12 [DMEM-F12, Gibco Cat. 11320-82], 10% Fetal Bovine Serum [FBS, Clontech Cat. 631101], 0.1 mM Non-Essential Amino Acids Solution [NEAA, Gibco Cat. 11140-050], 50 μg/mL Penicillin-Streptomycin [PS, Invitrogen Cat. 15140-163], 500 μg/mL Geneticin [G418, Invitrogen Cat. 10131-027]) containing 3 μg/mL Tet (Sigma, Cat. 87128) for 5 days. Cells were then seeded at 4×10^6 cells per T150 in the same culture medium as described above in the absence of Tet for 8 days. Cells were then harvested and frozen at density of 2×10^6 cells per mL. For compound testing, the frozen cells were thawed and seeded into 96-well plates at a density of 6×10^4 cells per well. At 24 hrs after seeding, half log serial dilutions of compounds made with Dimethyl sulfoxide (DMSO, Sigma, Cat. D2650) were further diluted with the same culture medium as described above before they were added to the cells to reach desired final compound concentrations and 1% DMSO concentration. Plates were then incubated at 37° C. for another 5 days before measurement of HBeAg level and cell viability. Intracellular HBeAg level were measured with enzyme-linked immunosorbent assay (ELISA) kit (Shanghai Kehua Diagnostic Medical Products Co., Ltd). Cell viability was assessed using Cell Counting Kit-8 (Donjindo, Cat. CK04-20). IC50 values were derived from the dose-response curve using 4 parameter logistic curve fit method.
The compounds of the present invention were tested for their capacity to inhibit extracellular HBeAg level as described herein.
For orientation: An ELISA detects its analyte on a solid surface through an enzyme-linked reagent.

As for `O=C(O)[C@H]1C[C@@H](OCCOc2ccc(-c3ncc4cccc(Cl)c4n3)cc2)C1` [Example 42, cis-3-[2-[4-(8-Chloroquinazolin-2-yl)phenoxy]ethoxy]cyclobutanecarboxylic acid], the IC50 was found to be 16.9 µM.
In the case of `O=C(O)c1nc(-c2ccc(Br)cc2)nc2cc(C(F)(F)F)ccc12` [Example 43, 2-(4-Bromophenyl)-7-(trifluoromethyl)quinazoline-4-carboxylic acid] it was 12.9 µM; in that of `O=C(c1nc(-c2ccc(Br)cc2)nc2cc(C(F)(F)F)ccc12)N1CCOCC1` [Example 44, [2-(4-Bromophenyl)-7-(trifluoromethyl)quinazolin-4-yl]-morpholino-methanone], 8.7 µM; in that of `O=C(O)c1nc(-c2ccc(Cl)nc2)nc2c(Cl)cccc12` [Example 45, 8-Chloro-2-(6-chloro-3-pyridyl)quinazoline-4-carboxylic acid], 0.66 µM.
Turning to `NC(=O)c1nc(-c2ccc(Cl)nc2)nc2c(Cl)cccc12` [Example 46, 8-chloro-2-(6-chloro-3-pyridyl)quinazoline-4-carboxamide], the midpoint of inhibition, the IC50, lay at 0.11 µM.
Next, `CCOc1ccc(-c2nc(C(=O)O)c3cccc(Cl)c3n2)cn1` [Example 48, 8-Chloro-2-(6-ethoxy-3-pyridyl)quinazoline-4-carboxylic acid]: 7.57 µM; `O=C(O)c1nc(-c2ccc(N3CCCC3)nc2)nc2c(Cl)cccc12` [Example 49, 8-Chloro-2-(6-pyrrolidin-1-yl-3-pyridyl)quinazoline-4-carboxylic acid]: 11 µM; `O=C(O)c1nc(-c2ccc(OCCO[C@H]3C[C@@H](C(=O)O)C3)nc2)nc2c(Cl)cccc12` [Example 50, cis-2-[6-[2-(3-Carboxycyclobutoxy)ethoxy]-3-pyridyl]-8-chloro-quinazoline-4-carboxylic acid]: 15 µM.
The molecule `O=C(O)COCCOc1ccc(-c2ncc3cccc(Cl)c3n2)cn1` [Example 51, 2-[2-[[5-(8-Chloroquinazolin-2-yl)-2-pyridyl]oxy]ethoxy]acetic acid] came in with an IC50 of 4.86 µM. Against the preceding molecule, the IC50 is about 3.1-fold lower.
Regarding `O=C(NCCO)c1nc(-c2ccc(Cl)nc2)nc2c(Cl)cccc12` [Example 52, 8-Chloro-2-(6-chloro-3-pyridyl)-N-(2-hydroxyethyl)quinazoline-4-carboxamide], half-maximal inhibition (IC50) was put at 0.16 µM. Compared with the last molecule, the IC50 is about 30-fold lower.
`O=C(c1nc(-c2ccc(Cl)nc2)nc2c(Cl)cccc12)N1CCOCC1` [Example 53, [8-Chloro-2-(6-chloro-3-pyridyl)quinazolin-4-yl]-morpholino-methanone] gave an IC50 of 0.083 µM.
Next, `O=C(O)[C@H]1C[C@@H](OCCOc2ccc(-c3nc(O)c4cccc(Cl)c4n3)cn2)C1` [Example 54, cis-3-[2-[[5-(8-Chloro-4-hydroxy-quinazolin-2-yl)-2-pyridyl]oxy]ethoxy]cyclobutanecarboxylic acid]: 3.42 µM; `COc1nc(-c2ccc(OCCOC3CC(C(=O)O)C3)cc2)nc2c(Cl)cccc12` (centres unmarked) [Example 55, 3-(2-(4-(8-Chloro-4-methoxyquinazolin-2-yl)phenoxy)ethoxy)cyclobutanecarboxylic acid]: 0.026 µM; `O=C(O)C1CC(OCCOc2ccc(-c3nc(C(F)(F)F)c4cccc(Cl)c4n3)cc2)C1` (centres unmarked) [Example 56, 3-[2-[4-[8-chloro-4-(trifluoromethyl)quinazolin-2-yl]phenoxy]ethoxy]cyclobutanecarboxylic acid]: 7.86 µM.
